We go through six compounds from patent US10041937B2, “Macrophage identification agent, and identification method, sorting method, evaluation method, screening method and kit using the macrophage identifier agent” (CANON KABUSHIKI KAISHA, priority 2013, dated 2018).

Test [1] concerns M1 macrophages and M2 macrophages. In words: Analysis of export inhibition of the identification agent by a test substance (FTC, MK-571, DIDS). In kind it is cell-based, mouse. The method, then:
Besides, Fumitremorgin C (manufactured by Sigma-Aldrich, hereinafter referred to as FTC) was added thereto, as a substance for inhibiting export of the compound (1) having been imported into cells, to a concentration of 10 μM, and the resultant was incubated at 37° C. for 30 minutes. Thereafter, the tube was centrifuged at 180 G for 10 minutes to remove the supernatant, and then, 1 mL of a HBSS buffer containing the FTC in a concentration of 10 μM was added thereto to suspend the cells, and the resultant was further incubated at 37° C. for 30 minutes.
Furthermore, each tube was centrifuged at 180 G for 10 minutes to remove the supernatant, the cells were suspended by adding the dye aqua for identifying dead cells thereto, and the resultant was incubated at 4° C. for 10 minutes. Thereafter, the tube was centrifuged at 180 G for 10 minutes to remove the supernatant, and then, the cells were suspended in a FACS buffer and analyzed by using a FACSCanto (trademark) II flow cytometry apparatus manufactured by BD.
The analysis was performed on a cell population showing a low signal for the aqua, so as to analyze a cell population from which dead cells were eliminated.
The analysis was performed in the same manner as in Example 57 except that the FTC was not added.
Thereafter, the tube was centrifuged at 180 G for 10 minutes to remove the supernatant, and then, 1 mL of a HBSS buffer containing the MK-571 in a concentration of 10 μM was added thereto to suspend the cells, and the resultant was further incubated at 37° C. for 30 minutes.
The analysis was performed in the same manner as in Example 79 except that the MK-571 was not added. […] The degree of the enhancement of the peak intensity caused by adding the MK-571 was evaluated by calculating the resolution R described above by using peak intensities in histograms prepared with and without adding the MK-571.
Thereafter, the tube was centrifuged at 180 G for 10 minutes to remove the supernatant, and then, 1 mL of a HBSS buffer containing the DIDS in a concentration of 10 μM was added thereto to suspend the cells, and the resultant was further incubated at 37° C. for 30 minutes.

For test [2], the system named is M1 macrophages and M2 macrophages differentiated from mouse bone marrow cells. In words: Subtype identification by staining and flow cytometry of M1 and M2 macrophages differentiated from mouse bone marrow cells. Format: cell-based, Balb/c mouse. The settings on record: for Resolution ratio R: M1 vs M2 macrophages from mouse bone marrow cells; for Evaluation of macrophage subtype identification: class based on resolution R; for Peak position of M1 macrophage: mouse bone marrow-derived M1 macrophages; for Peak position of M1 macrophage / Peak position of M2 macrophage: channel listed per compound; for Peak position of M2 macrophage: mouse bone marrow-derived M2 macrophages; for subtype more strongly stained: two compounds used in combination, each 1 μM. An outline of the steps:
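Balb/c mouse bone marrow cells were differentiated to macrophages with 50 ng/mL M-CSF over two 3–4-day periods, then polarized for 3 days to M1 (interferon-γ plus polyliposaccharide) or M2 (IL-4). Live cells (aqua dye-negative) were analysed by flow cytometry; resolution R = |FM1−FM2|/(WM1+WM2) from histogram peak positions and widths indexed subtype discrimination.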
For orientation: Flow cytometry measures light scatter and fluorescence of single cells or particles in a stream.

In test [3] the test system is M1 macrophages and M2 macrophages differentiated from THP-1 cells. In words: Identification of macrophage subtypes differentiated from human cell line THP-1. Format: cell-based. As to conditions: THP-1 derived M1 and M2. As for the experimental part: The fluorescent signals derived from the compounds (3), (4), (6), (7), (9), (11) to (13), (15), (17), (19) to (26), (28), (30) to (33), (35), (36), (38), (42) to (45), (48) to (62), (65), (67), (74) to (76), (82), (83) and (85) and the comparative compounds (1) and (2) were measured in channels suitable to the respective compounds. Histograms were prepared by plotting fluorescence intensities obtained in the respective channels on the abscissa and plotting the numbers of cells at each fluorescence intensity on the ordinate. A difference between a fluorescence intensity (FM1) at a peak top of the histogram of the M1 macrophage and a fluorescence intensity (FM2) at a peak top of the histogram of the M2 macrophage is divided by a sum of a peak width (WM1) of the histogram of the M1 macrophage and a peak width (WM2) of the histogram of the M2 macrophage, so as to obtain a resolution R, which was used as an index of the identification ability for a subtype (see the following expression (1)). Resolution R=|FM1−FM2|/(WM1+WM2) Expression (1)
Based on the thus obtained values of the resolution R, the identification abilities for the subtypes of the compounds (3), (4), (6), (7), (9), (11) to (13), (15), (17), (19) to (26), (28), (30) to (33), (35), (36), (38), (42) to (45), (48) to (62), (65), (67), (74) to (76), (82), (83) and (85) and the comparative compounds (1) and (2) were evaluated as any of A to C according to the following criteria, and if the resolution R was 0.15 or more, the compound was determined to be good in the subtype identification.
The subtypes were identified by using the compound (1) in the same manner as in Example 1 except that the macrophage subtypes differentiated from the mouse bone marrow cells were changed to macrophage subtypes differentiated from a cell line established from human acute monocytic leukemia.
The culture of subtypes was performed with reference to NPL 10. Specifically, THP-1 cells purchased from JCRB Cell Bank of National Institute of Biomedical Innovation, that is, a cell line established from human acute monocytic leukemia, were subcultured several times, and the resultant cells were dispersed to a concentration of 5.0×10^5/mL in an RPMI1640 containing 10% FBS and 1% P/S, and 5.0×10^6 cells were seeded in a 100 mm dish. The monocytes were differentiated into macrophages by incubating the resultant in the presence of 5% CO2 at 37° C. for 2 days with 500 ng of PMA added thereto. After exchanging the medium, by adding 200 ng of interferon-γ and 1 μg of polyliposaccharide (both manufactured by Pepro Tech) to the medium, the cells were differentiated to the subtype M1. Besides, by adding 200 ng of IL-4 and IL-13, the cells were differentiated to the subtype M2. After incubation performed in the presence of 5% CO2 at 37° C. for 24 hours, the resultant was rinsed with PBS, and PBS containing 0.25% trypsin and 1 mM EDTA (ethylenediaminetetraacetic acid) was used for collecting, from the dish, the macrophages having been differentiated to the subtypes M1 and M2.
Specifically, fluorescent signals derived from the compounds (1) (3) (4) (12) and (15) were measured by using the channels which are appropriate for each of the compounds and the identification abilities for the subtypes of the compounds were evaluated based on the values of the resolution R.

In test [4] the test system is mixture of the M1 macrophages and the M2 macrophages. In words: Sorting of subtypes from a mixture of M1 and M2 macrophages with an FACS apparatus. Format: cell-based, mouse. The settings on record: compound 1 μM; for sorting of identified M1 and M2 macrophages: FACS apparatus; for subtype more strongly stained: mixed M1 and M2 macrophages.
Test [5] relates to M1 macrophages and M2 macrophages differentiated from RAW264.7 cells. Description: Identification of macrophage subtypes differentiated from mouse cell line RAW264.7. In kind it is cell-based. The settings on record: RAW264.7 derived M1 and M2. As for the experimental part: The subtypes were identified by using the compound (1) in the same manner as in Example 1 except that the macrophage subtypes differentiated from the mouse bone marrow cells were changed to macrophage subtypes differentiated from a cell line established from mouse monocytic leukemia.
The culture of subtypes was performed with reference to NPL 9. Specifically, RAW264.7 cells purchased from American Type Culture Collection, that is, a cell line established from mouse monocytic leukemia, were subcultured several times, and the resultant cells were dispersed to a concentration of 3.3×10^4/mL in a D-MEM containing 10% FBS, 1% P/S and 1% MEM-NEAA, and 3.3×10^5 cells were seeded in a 100 mm dish. The cells were grown by incubation performed in the presence of 5% CO2 at 37° C. After 2 to 4 days, it was confirmed that an area of about to 70% of the bottom of the dish had been covered by the cells, the medium was then exchanged, and by adding 200 ng of interferon-γ and 1 μg of polyliposaccharide (both manufactured by Pepro Tech) to the medium, the cells were differentiated to the subtype M1. Besides, by adding 100 ng of IL-4, the cells were differentiated to the subtype M2. […]
A histogram was prepared by plotting fluorescence intensity obtained in the FITC channel on the abscissa and plotting the number of cells at each fluorescence intensity on the ordinate, which is shown in FIG. 9.

[6] abbreviates: general formula (10) dyes (Table 8).
Setting [7] is: general formula (11) dyes (Table 9).

Take `CN(C)C(=O)CCSC(SCCC(=O)O)c1cccc(/C=C/c2ccc3ccc(Cl)cc3n2)c1` (stereo not drawn) [MK-571]: the “degree of the enhancement of the peak intensity (resolution R with and without MK-571)” value in test [1] (M1 macrophages, MK-571 10 μM, compound (113) 1 μM) is 0.406; in test [1] (M1 macrophages, MK-571 10 μM, compound (120) 1 μM) it was 0.739; in test [1] (M2 macrophages, MK-571 10 μM, compound (113) 1 μM), 0.438; in test [1] (M2 macrophages, MK-571 10 μM, compound (120) 1 μM), 0.730. Besides, in test [1] (MK-571 10 μM, compound (113) 1 μM), the “enhancement of the fluorescence intensity caused by inhibition of export of the compound (113)” value was “observed in both the M1 macrophages and the M2 macrophages”. Moreover, the “enhancement of the fluorescence intensity caused by inhibition of export of the compound (120)” value in test [1] (MK-571 10 μM, compound (120) 1 μM) is “observed in both the M1 macrophages and the M2 macrophages”.

With `O=S(=O)(O)c1cc(N=C=S)ccc1C=Cc1ccc(N=C=S)cc1S(=O)(=O)O` [DIDS, 4,4′-diisothiocyanatostilbene-2,2′-disulfonic acid], in test [1] (DIDS 10 μM, compound (139) 1 μM), the “enhancement of the fluorescence intensity caused by inhibition of export of the compound (139)” value is “observed merely in the M1 macrophages”.

On to `CCN(CC)c1ccc2cc(-c3nc4cc(Cl)ccc4o3)c(=O)oc2c1` [compound (120)], for which, in test [2] (setting [6]), the “Resolution ratio R” value turned out to be 0.676; the “Evaluation of macrophage subtype identification” value (shortened to “Evaluation”) is “A (The compound is very good in the subtype identification (namely, the resolution R is 0.5 or more))”; the “Peak position of M1 macrophage” value is listed as 10.1; the “Peak position of M2 macrophage” value is on record as 5.60. For the same compound, the “subtype more strongly stained” value in test [2] is “more strongly stain the M1 macrophages than the M2 macrophages”. Further, in test [3], the “subtype more strongly stained” value is “the M1 macrophages were stained more strongly by the compound (120) than the M2 macrophages”. Further, in test [4], the “sorting of identified M1 and M2 macrophages” value is “could be each sorted with an FACS apparatus”; the “subtype more strongly stained” value is “stain the M1 macrophages more strongly than the M2 macrophages”.

Take `CCC1=C(C)C2=C(C)c3c(C)c(CC)c(C)n3[B-](F)(F)[N+]2=C1C` [compound (139)]: in test [2] (setting [7]), the “Resolution ratio R” value is 1.023; the “Evaluation” value was “A (The compound is very good in the subtype identification (namely, the resolution R is 0.5 or more))”; the “Peak position of M1 macrophage” value came out at 220; the “Peak position of M2 macrophage” value came to 47.8. Also, in test [2], the “subtype more strongly stained” value is reported as “the M1 macrophages show higher fluorescence intensity in the FITC channel than the M2 macrophages”. In test [3], the “subtype more strongly stained” value is “the M1 macrophages were stained more strongly by the compound (139) than the M2 macrophages”. In test [4], the “sorting of identified M1 and M2 macrophages” value is reported as “could be each sorted with an FACS apparatus”; the “subtype more strongly stained” value is listed as “staining the M1 macrophages more strongly than the M2 macrophages”.

As for `COc1ccc2c3c([nH]c2c1)[C@H](C=C(C)C)N1C(=O)[C@@H]2CCCN2C(=O)[C@@H]1C3` [FTC, Fumitremorgin C], in test [1] (FTC 10 μM, compound (1) 1 μM), the “enhancement of the fluorescence intensity caused by inhibition of export of the compound (1)” value is reported as “observed merely in the M2 macrophages”.

As for `CCN(CC)c1ccc2cc(-c3nc4ccccc4s3)c(=O)oc2c1` [compound (129)], in test [2] (setting [6]), the “Resolution ratio R” value stood at 0.709; the “Evaluation” value is reported as “A (The compound is very good in the subtype identification (namely, the resolution R is 0.5 or more))”; the “Peak position of M1 macrophage” value turned out to be 31.0; the “Peak position of M2 macrophage” value is on record as 13.0. Also, in test [5], the “subtype more strongly stained” value is “the M1 macrophages were stained more strongly by the compound (129) than the M2 macrophages”. Further, the “subtype more strongly stained” value in test [3] is listed as “the M1 macrophages were stained more strongly by the compound (129) than the M2 macrophages”.
